Entries after “also recorded” stand apart in the source; their conditions may differ. Read-outs that look alike come from different tables or passages of the source.
Legend:
jack bean urease = jack bean urease (Canavalia ensiformis (Jack bean) (Dolichos ensiformis), UniProt P07374); test: biochemical; assay type: biochemical; set-up: Vmax / Vmaxapp: unit not given here; settings: for Type of Inhibition: from Lineweaver-Burk plot; for Kmapp / Km: substrate urea; for Kmapp / Vmaxapp: in presence of inhibitor; for Km / Vmax: without inhibitor
Method: The Lineweaver-Burk plot was used to determine the type of inhibition, while Dixon plot and secondary replete were used for the determination of dissociation constants (Ki). The Ki, Km, and Vmax were determined by non-linear regression equation. The Ki value was determined from lineweaver-Burk plot. For the calculation of Ki values, initially the 1/Vmaxapp values were determine on y-axis of lineweaver-Burk plot at each junction point of lines of every inhibitor concentration. Secondly the slope of the inhibitor at concentration of each line were determined on Lineweaver-Burk plot and re-plotted against the inhibitor concentrations.
Graphs were plotted using GraFit program. Values of the correlation coefficients, slopes, intercepts, and their standard errors were obtained by the linear regression analysis using the same program. Each point in the constructed graphs represents the mean of the three experiments.
In mixed-type of inhibition, both Km and Vmax are affected.
Three different methods were applied to determine the type of inhibition and Ki values for these inhibitors. Firstly by using Lineweaver-Burk plots the reciprocal of the rate of the reaction were plotted against the reciprocal of substrate concentration to monitor the effect of inhibitor on both Km and Vmax. Secondly the secondary replots of Lineweaver-Burk plots were plotted to determine the Ki value. The Ki values were calculated by plotting the slope of each line in the Lineweaver-Burk plots against the different concentration of inhibitors.

[1] = target: Jack bean (Canavalia ensiformis) urease (Canavalia ensiformis (Jack bean) (Dolichos ensiformis), UniProt P07374); test: biochemical; assay type: biochemical; settings: for urease inhibitory activity compared with standard thiourea: in words
Method: The Schiff bases of thiazoles were evaluated for their urease inhibitory potential by using the following protocol:
Finally the results were processed by software SoftMax Pro (Molecular Devices, CA, USA), MS-Excel and Ez-fit. The Percent inhibition was calculated from the formula given below: 100−(OD of test compound/OD of control)×100
The IC50 values were then calculated using the EZ-Fit Enzyme Kinetics program (Perrella Scientific Inc., Amherst, U.S.A.).

[2] = Jack bean urease, pH 6.8, 100 mM urea, 30° C., 15 min, read-out: IC50 ± SEM
[3] = Table 2, jack bean urease, read-out: IC50
[4] = mean of triplicate, read-out: Ki ± S.E.M.

Molecule: C(=Nc1nc(-c2ccccc2)cs1)c1c[nH]c2ccccc12 [Compound 2, N-[1H-indol-3-yl-methylidene]-N-(4-phenyl-1,3-thiazol-2-yl)amine]
- Ki (jack bean urease): 9.6 ± 0.0024 µM
- IC50 [1, 2]: 8.56 ± 0.027 µM
- IC50 [1, 3]: 8.5 µM

Molecule: CCOc1cccc(C=Nc2nc(-c3ccccc3)cs2)c1O [Compound 3, 2-Ethoxy-6-{[(4-phenyl-1,3-thiazol-2-yl)imino]methyl}phenol]
- Ki (jack bean urease): 9.7 ± 0.007 µM
- IC50 ([1]; IC50): 7.9 µM
- IC50 ([1]; IC50 ± SEM): 7.9 ± 0.08 µM

Molecule: COc1cccc(C=Nc2nc(-c3ccccc3)cs2)c1O [Compound 6, 2-Methoxy-6-{[(4-phenyl-1,3-thiazol-2-yl)imino]methyl} phenol]
- Ki (jack bean urease): 8.22 ± 0.0233 µM
- IC50 ([1]; IC50): 8.8 µM

Molecule: Oc1ccc(Cl)cc1C=Nc1nc(-c2ccccc2)cs1 [Compound 8, 4-Chloro-2-{[(4-phenyl-1,3-thiazol-2-yl)imino]methyl} phenol]
- Ki (jack bean urease): 7.89 ± 0.0142 µM
- IC50 [1, 2]: 8.13 ± 0.02 µM
- IC50 [1, 3]: 8.1 µM

Molecule: Cc1ccc(C=Nc2nc(-c3ccccc3)cs2)o1 [Compound 10, N-[(5-Methyl-2-furyl)methylidene]-N-(4-phenyl-1,3-thiazol-2-yl)amine]
- Ki (jack bean urease): 14.82 ± 0.0109 µM
- IC50 [1, 2]: 17.83 ± 0.07 µM
- IC50 [1, 3]: 17.8 µM

Molecule: Oc1ccc(C=Nc2nc(-c3ccccc3)cs2)cc1 [Compound 12, 4-{[(4-Phenyl-1,3-thiazol-2-yl)imino]methyl}phenol]
- IC50 ([1]; IC50 ± SEM): 20.16 ± 0.07 µM

Molecule: Oc1ccccc1C=Nc1nc(-c2ccccc2)cs1 [Compound 16, 2-{[(4-Phenyl-1,3-thiazol-2-yl)imino]methyl} phenol]
- IC50 [1, 2]: 12.4 ± 0.14 µM

Molecule: C(=Nc1nc(-c2ccccc2)cs1)c1cccc2ccccc12 [Compound 21, N-[1-Naphthyl-methylidene]-N-(4-phenyl-1,3-thiazol-2-yl)amine]
- IC50 [1, 2]: 23.06 ± 0.11 µM

Molecule: Oc1cccc(C=Nc2nc(-c3ccccc3)cs2)c1O [Compound 23, 3-{[(4-Phenyl-1,3-thiazol-2-yl)imino]methyl}-1,2-benzenediol]
- IC50 ([1]; IC50 ± SEM): 19.63 ± 0.19 µM

Molecule: NC(N)=S [Thiourea, reference compound]
- Type of Inhibition (jack bean urease): Competitive inhibition
- Ki (jack bean urease; [4]): 20.01 ± 0.02 µM
- Kmapp (jack bean urease): 7.38 mM
- Km (jack bean urease): 2250 µM

Molecule: N-(4-Phenyl-1,3- thiazol-2-yl)-N-[4- pyridinylmethyl- idene]amine [Compound 5]
- Type of Inhibition (jack bean urease): Competitive inhibition
- Vmaxapp (jack bean urease): 23.5
- Ki (jack bean urease; [4]): 13.6 ± 0.0123 µM
- Kmapp (jack bean urease): 5.09 mM
- Km (jack bean urease): 2250 µM
- Vmax (jack bean urease): 21.64
- IC50 ([1]; read-out: IC50): 7.6 µM
- IC50 ([1]; read-out: IC50 ± SEM): 7.6 ± 0.08 µM

Molecule: N-[2,6-Dichloro- phenyl)methylidene]-N-(4- phenyl-1,3-thiazol- 2-yl)amine [Compound 25]
- IC50 [1, 2]: 22.33 ± 0.11 µM
- urease inhibitory activity compared with standard thiourea [1]: significant urease inhibitory activity, comparable to standard

Molecule: N-[2-Chloro- phenyl)methylidene]- N-(4-phenyl-1,3- thiazol-2-yl) amine [Compound 20]
- IC50 [1, 2]: 13.03 ± 0.02 µM

Molecule: N-[2-Fluorophenyl) methylidene]-N- (4-phenyl-1,3- thiazol-2-yl)amine [Compound 22]
- IC50 [1, 2]: 17.93 ± 0.07 µM

Molecule: N-[2-Naphthylmethyl- idene]-N-(4-phenyl- 1,3-thiazol-2-yl)amine [Compound 7]
- Type of Inhibition (jack bean urease): Competitive inhibition
- Vmaxapp (jack bean urease): 29
- Ki (jack bean urease; [4]): 11.89 ± 0.004 µM
- Kmapp (jack bean urease): 6.28 mM
- Km (jack bean urease): 2250 µM
- Vmax (jack bean urease): 28.8
- IC50 [1, 2]: 9.33 ± 0.02 µM
- IC50 [1, 3]: 9.33 µM

Molecule: N-[4-(Dimethylamino) phenyl]methylidene}-N- (4-phenyl-1,3-thiazol-2- yl)amine [Compound 14]
- IC50 [1, 2]: 20.36 ± 0.11 µM

Molecule: N-[4-(Methylsulfanyl) phenyl]methylidene}-N- (4-phenyl-1,3-thiazol-2- yl)amine [Compound 18]
- IC50 [1, 2]: 6.96 ± 0.054 µM

Molecule: N-[4-Chlorophenyl) methylidene]-N-(4-phenyl- 1,3-thiazol-2-yl)amine [Compound 26]
- IC50 [1, 2]: 19 ± 0.04 µM

Molecule: N-[4-Ethoxyphenyl)methyl- idene]-N-(4-phenyl-1,3- thiazol-2-yl)amine [Compound 4]
- Type of Inhibition (jack bean urease): mixed-type; also recorded: Mixed inhibition
- Vmaxapp (jack bean urease): 12.85
- Ki (jack bean urease; [4]): 9.23 ± 0.018 µM
- Kmapp (jack bean urease): 2.56 mM
- Km (jack bean urease): 2250 µM
- Vmax (jack bean urease): 23.47
- IC50 [1, 3]: 11.2 µM

Molecule: N-[4-Isopropylphenyl) methylidene]-N-(4- phenyl-1,3-thiazol-2- yl)amine [Compound 9]
- Type of Inhibition (jack bean urease): mixed-type; also recorded: Mixed inhibition
- Vmaxapp (jack bean urease): 8.72
- Ki (jack bean urease; [4]): 12.39 ± 0.0168 µM
- Kmapp (jack bean urease): 3.22 mM
- Km (jack bean urease): 2200 µM
- Vmax (jack bean urease): 19
- IC50 [1, 2]: 14.5 ± 0.16 µM
- IC50 [1, 3]: 14.5 µM

Molecule: N-[4-Methoxyphenyl) methylidene]-N-(4- phenyl-1,3-thiazol-2- yl)amine [Compound 13]
- urease inhibitory activity compared with standard thiourea [1]: significant urease inhibitory activity, comparable to standard

Molecule: N-[4-Nitrophenyl)methyl- idene]-N-(4-phenyl-1,3- thiazol-2-yl)amine [Compound 11]
- IC50 [1, 2]: 32.5 ± 0.02 µM
- urease inhibitory activity compared with standard thiourea [1]: significant urease inhibitory activity, comparable to standard

Molecule: N-[Phenylmethyl- idene]-N-(4-phenyl- 1,3-thiazol-2-yl) amine [Compound 19]
- IC50 [1, 2]: 16.76 ± 0.054 µM
